Results taken from article PMC11051198, “Synthesis and Late-Stage Modification of (−)-Doliculide Derivatives Using Matteson’s Homologation Approach” (Marine Drugs, 2024).

Tests used:
HepG2 = assay: MTT cytotoxicity assay, HepG2; assay type: cell-based; settings: HepG2 human hepatocellular carcinoma, 5 d incubation, 37 °C, 5% CO2, DMEM + 10% FBS, mean ± SD of two independent measurements
Experimental: (§1) The cell cultures were cultivated at 37 °C under an atmosphere containing 5% CO2. Before usage, Dulbecco’s Modified Eagle Medium (DMEM) from Gibco (Thermo Fisher Scientific) was supplemented with 10% fetal bovine serum (FBS) from Gibco. Cells were used between passage 5 and 30 and were split separately for at least two passages to obtain biological repeats. Cells were washed with PBS and 0.5 mL trypsin was added before treatment. Cells were then incubated for 5 min before adding 10 mL medium containing 10% FBS. Per well, 120 µL cell suspension 5 × 10^4 cells/mL (CHO-K1, HCT-116. U-2 OS, KB3.1) or 1 × 10^5 cells/mL (HepG2) cells were seeded in transparent 96-well cell bind plate and incubated for 2 h at 37 °C and an atmosphere of 5% CO2. Each compound was tested in a serial dilution so that the starting concentration is 111 µg/mL, which is diluted by 1:3 as well as the internal solvent control prepared in DMEM with 10% FBS. After 5 d incubation at 37 °C and an atmosphere of 5% CO2, 20 μL of 5 mg/mL MTT (thiazolyl blue tetrazolium bromide) in PBS was added per well and cells were further incubated until coloration of the cells. The medium was then discarded and 100 μL 2-propanol/10 N HCl (250:1) added to the cells. The plates were analyzed by measuring the absorbance at 570 nm and 630 nm as reference using a microplate reader Infinite® 200 Pro from Tecan (Männedorf, Switzerland). Absorption is then converted to cell viability expressed as percentage relative to the respective solvent control. The calculated percentage of growth inhibition were determined by sigmoidal curve fitting using GraphPad (Boston, MA, USA) Prism software (version 10.0.2). Two independent measurements were generated for mean and standard deviation.

CHO-K1 = assay: MTT cytotoxicity assay, CHO-K1; assay type: cell-based; settings: CHO-K1 mutagenized Chinese hamster ovary, 5 d incubation, 37 °C, 5% CO2, DMEM + 10% FBS, mean ± SD of two independent measurements
Experimental: as §1

HCT-116 = assay: MTT cytotoxicity assay, HCT-116; assay type: cell-based; settings: HCT-116 human colon carcinoma, 5 d incubation, 37 °C, 5% CO2, DMEM + 10% FBS, mean ± SD of two independent measurements
Experimental: as §1

U-2 OS = assay: MTT cytotoxicity assay, U-2 OS; assay type: cell-based; settings: U-2 OS human bone osteosarcoma, 5 d incubation, 37 °C, 5% CO2, DMEM + 10% FBS, mean ± SD of two independent measurements
Experimental: as §1

KB3.1 = assay: MTT cytotoxicity assay, KB3.1; assay type: cell-based; settings: KB3.1 human epidermoid carcinoma cell line, 5 d incubation, 37 °C, 5% CO2, DMEM + 10% FBS, mean ± SD of two independent measurements
Experimental: as §1

HeLa-S3 cells = settings: ref [1]; cited from earlier work
Experimental: Isolation of (−)-doliculide (Figure 1) from the Japanese sea hare, Dolabella auricularia, was first reported almost 30 years ago by Yamada et al., along with its potent cytotoxicity against HeLa-S3 cells (IC50 = 1 ng/mL). […] Due to their biological activities as anticancer agents, naturally derived cyclopeptides are interesting candidates for drug development, and so ...

[1] = ≤ values: individual results varied widely, given as a range

Row | Compound | IC50 (HepG2) [µM] | IC50 (CHO-K1) [µM] | IC50 (HCT-116; [1]) [µM] | IC50 (U-2 OS; [1]) [µM] | IC50 (KB3.1; [1]) [µM] | cytotoxicity against HeLa-S3 cells, IC50 (HeLa-S3 cells) [ng/mL] | IC50 (HCT-116) [µM] | IC50 (U-2 OS) [µM] | IC50 (KB3.1) [µM]
1 | CC(C)[C@@H]1C[C@H](O)[C@H](C)C[C@H](C)C[C@H](C)C(=O)NCC(=O)N(C)[C@H](Cc2ccc(O)c(I)c2)C(=O)O1 [A, (−)-Doliculide] | 0.0164 ± 0.0042 | 0.111 ± 0.0045 | 0.0088 ± 0.0005 | 0.0252 ± 0.0018 | 0.038 ± 0.0099 | 1 | – | – | –
2 | C[C@H]1C[C@@H](C)[C@@H](O)C[C@@H](Cc2cn(CCOCCOCCO)nn2)OC(=O)[C@@H](Cc2ccc(O)c(I)c2)N(C)C(=O)CNC(=O)[C@@H](C)C1 [Compound 9e, (3R,9S,11S,13R,14S,16R)-14-Hydroxy-3-(4-hydroxy-3-iodobenzyl)-16-((1-(2-(2-(2-hydroxyethoxy)ethoxy)ethyl)-1H-1,2,3-triazol-4-yl)methyl)-4,9,11,13-tetramethyl-1-oxa-4,7-diazacyclohexadecane-2,5,8-trione] | > 47 | > 47 | – | – | – | – | 8.55 ± 1.14 | 23 ± 4.4 | 10.5 ± 0.3
3 | Benzyl 2-(4-{[(3R,9S,11S,13R,14S,16R)-14-hydroxy-3-(4-hydroxy-3-iodobenzyl)-4,9,11,13-tetramethyl-2,5,8-trioxo-1-oxa-4,7-diazacyclohexadecan-16-yl]methyl}-1H-1,2,3-triazol-1-yl)acetate [Compound 9c] | > 46 | 23.8 ± 0.5 | – | – | – | – | 3.81 ± 1 | 14.4 ± 1.3 | 21.9 ± 12.6
4 | C[C@H]1C[C@@H](C)[C@@H](O)C[C@@H](Cc2cn(Cc3ccccc3)nn2)OC(=O)[C@@H](Cc2ccc(O)c(I)c2)N(C)C(=O)CNC(=O)[C@@H](C)C1 [Compound 9a, (3R,9S,11S,13R,14S,16R)-16-[(1-Benzyl-1H-1,2,3-triazol-4-yl)methyl]-14-hydroxy-3-(4-hydroxy-3-iodobenzyl)-4,9,11,13-tetramethyl-1-oxa-4,7-diazacyclohexadecane-2,5,8-trione] | > 49.6 | 0.024 ± 0.009 | 0.309 ± 0.081 | ≤ 0.08 | 0.047 ± 0.013 | – | – | – | –
